Measurements reported in PubChem BioAssay (NCI).
Several values for one entry are separate records, joined by “and”; a condition that tells them apart may be missing. Equal entries are not always repeated.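 Assay format: 96-well plates, 48-hour exposure. GI50 is the concentration that inhibits growth by half. At the TGI there is no net growth.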

Experiments:
Experiment in all cases: growth of human tumour cells (NCI), 48 h
786-0 renal = test system: 786-0 renal
HCT-116 colon = test system: HCT-116 colon
HCT-15 colon = test system: HCT-15 colon
KM12 colon = test system: KM12 colon
LOX IMVI melanoma = test system: LOX IMVI melanoma
M14 melanoma = test system: M14 melanoma
NCI-H23 lung = test system: NCI-H23 lung
OVCAR-8 ovarian = test system: OVCAR-8 ovarian
SN12C renal = test system: SN12C renal
SW-620 colon = test system: SW-620 colon

Row | Compound | GI50 (786-0 renal) | TGI (786-0 renal) [µM] | GI50 (HCT-116 colon) | TGI (HCT-116 colon) [µM] | TGI (HCT-15 colon) [µM] | TGI (KM12 colon) [µM] | TGI (LOX IMVI melanoma) [µM] | GI50 (M14 melanoma) [µM] | TGI (M14 melanoma) [µM] | GI50 (NCI-H23 lung) | TGI (NCI-H23 lung) [µM] | TGI (OVCAR-8 ovarian) [µM] | TGI (SN12C renal) [µM] | TGI (SW-620 colon) [µM] | GI50 (HCT-15 colon) [µM] | GI50 (KM12 colon) [µM] | GI50 (LOX IMVI melanoma) [µM] | GI50 (OVCAR-8 ovarian) [µM] | GI50 (SN12C renal) [µM] | GI50 (SW-620 colon) [µM]
1 | N#Cc1c2c(c(-c3cccs3)n(C3OC(CO)C(O)C(O)C3O)c1=S)CCc1ccccc1-2 (stereo not given) | 12.3 µM and 25.2 µM | > 100 | 7.39 µM and 15.5 µM | > 100 | > 100 | > 100 | > 100 | > 100 | > 100 | 13.5 µM and > 39.3 µM | > 100 | > 100 | > 100 | > 100 |  |  |  |  |  | 
2 | C1C[OH+]CC[OH+]CC[OH+]CC[OH+]CC[OH+]CC[OH+]1.[Cl-].[Nb+5] | > 100 µM | > 100 | > 100 µM | > 100 | > 100 | > 100 | > 100 | > 100 | > 100 | > 100 µM | > 100 | > 100 | > 100 | > 100 | > 100 | > 100 | > 100 | > 100 | > 100 | > 100
3 | C#Cc1cc2c(N)c(C(=O)c3cc(OC)c(OC)c(OC)c3)[nH]c2cc1OC | 0.542 µM | > 100 | 0.431 µM | > 100 | > 100 | > 100 | > 100 | 0.521 | > 100 | 1.94 µM | > 100 | > 100 | > 100 | > 100 | 0.46 | 0.412 | 0.656 | 2.48 | 11.2 | 0.396
4 | C[N+](C)(C)CC1CCCC/C1=N\O (stereo not given) |  | > 100 |  | > 100 | > 100 | > 100 | > 100 |  | > 100 |  | > 100 | > 100 | > 100 | > 100 |  |  |  |  |  | 
5 | COc1cc2c(cc1OC)-c1ncc3cc4c(cc3c1C2)OCO4 | 18.3 µM | 45.5 | 11.1 µM | 23 | > 100 | > 100 | > 100 | 19.6 | 82.5 | 20.3 µM | 41.7 | > 100 | > 100 | > 100 | > 100 | 38.1 | > 100 | 47.3 | > 100 | 34.9
6 | CN1CCN(CCOc2ccc(-c3cnc4c(-c5ccc(F)cc5)cnn4c3)cc2)CC1 | 1.73 µM | 3.2 | 1.55 µM | 3.05 | 2.75 | 2.36 | 3.25 | 1.96 | 3.7 | 1.73 µM | 3.25 | 5.08 | 3.23 | 3.56 | 1.32 | 1.06 | 1.76 | 2.14 | 1.69 | 1.89
7 | N=C(N)SCCc1ccccn1 |  | > 100 |  | > 100 | > 100 | > 100 | > 100 |  | > 100 | 35.5 µM and > 100 µM | > 100 | > 100 | > 100 | > 100 |  |  |  |  |  | 
